Measured values as given in patent US20250382302A1, “Anticancer polyheterocyclic compounds and associated methods” (University of Denver, priority 2024, published 2025).

Experiments:
KM12 [1] = conditions: Colon Cancer
KM12 [2] = assay: cells; conditions: Homo sapiens; for GI50: KM12; for CC50: KM12, read-out: LC50
K-562 = assay: NCI five-dose testing, K-562
T-47D = assay: NCI five-dose testing, T-47D; conditions: for TGI: Breast Cancer, T-47D; for GI50 / CC50: Homo sapiens, T47D; for CC50: read-out: LC50
MOLT-4 = assay: NCI five-dose testing, MOLT-4; conditions: for GI50 / CC50: Homo sapiens; for GI50 / TGI: MOLT-4; for CC50: MOLT-4, read-out: LC50; for TGI: Leukemia
OVCAR-3 = assay: NCI five-dose testing, OVCAR-3; conditions: for GI50 / CC50: Homo sapiens; for GI50 / TGI: OVCAR-3; for CC50: OVCAR-3, read-out: LC50; for TGI: Ovarian Cancer
CCRF-CEM = assay: NCI five-dose testing, CCRF-CEM; conditions: for GI50 / CC50: Homo sapiens; for CC50: read-out: LC50; for TGI: Leukemia
NCI-H522 = assay: NCI five-dose testing, NCI-H522; conditions: for GI50 / CC50: Homo sapiens; for GI50 / TGI: NCI-H522; for CC50: NCI-H522, read-out: LC50; for TGI: Non-Small Cell Lung Cancer
HL-60(TB) = assay: NCI five-dose testing, HL-60(TB); conditions: for GI50 / CC50: Homo sapiens; for GI50: HL-60; for CC50: HL-60, read-out: LC50; for TGI: Leukemia, HL-60(TB)
RPMI-8226 = assay: NCI five-dose testing, RPMI-8226; conditions: for GI50 / CC50: Homo sapiens; for GI50 / TGI: RPMI-8226; for CC50: RPMI-8226, read-out: LC50; for TGI: Leukemia
MDA-MB-468 = assay: NCI five-dose testing, MDA-MB-468; conditions: for TGI: Breast Cancer; for TGI / GI50: MDA-MB-468; for GI50 / CC50: Homo sapiens; for CC50: MDA-MB-468, read-out: LC50
NCI-H23 [3] = conditions: Non-Small Cell Lung Cancer
SNB-75 [4] = conditions: CNS Cancer
UACC-62 [5] = conditions: Melanoma
OVCAR-8 [6] = conditions: Ovarian Cancer
ACHN [7] = conditions: Renal Cancer
UO-31 [8] = conditions: Renal Cancer
NCI-H23 [9] = assay: cells; conditions: Homo sapiens
SNB-75 [10] = assay: cells; conditions: Homo sapiens
UACC-62 [11] = assay: cells; conditions: Homo sapiens
OVCAR-8 [12] = assay: cells; conditions: Homo sapiens
ACHN [13] = assay: cells; conditions: Homo sapiens
UO-31 [14] = assay: cells; conditions: Homo sapiens
MCF7 = assay: NCI five-dose testing, MCF7; conditions: for TGI: Breast Cancer; for TGI / GI50: MCF7; for GI50 / CC50: Homo sapiens; for CC50: MCF7, read-out: LC50
OVCAR-4 = assay: NCI five-dose testing, OVCAR-4; conditions: for GI50 / CC50: Homo sapiens; for GI50 / TGI: OVCAR-4; for CC50: OVCAR-4, read-out: LC50; for TGI: Ovarian Cancer
SR = assay: NCI five-dose testing, SR
SK-MEL-2 = assay: NCI five-dose testing, SK-MEL-2; format: cell-based; conditions: Melanoma
SK-MEL-5 = assay: NCI five-dose testing, SK-MEL-5; format: cell-based; conditions: Melanoma
[15] = Homo sapiens, read-out: LC50 (the source's name)

SMILES: COc1cccc(OC)c1N(Cc1ccoc1)C(=O)C(=O)NC1=CC(=O)c2ccccc2C1=O
- TGI (KM12 [1]): 3.51 × 10^−6
- GI50 (KM12 [2]): 1250 nM
- CC50 (KM12 [2]): 9.84 µM
- GI50 (K-562; Homo sapiens, K562): 1460 nM
- CC50 (K-562; Homo sapiens, K562, read-out: LC50): 5.37 µM
- TGI (K-562; Leukemia, K-562): 2.80 × 10^−6
- TGI (T-47D): 2.81 × 10^−6
- GI50 (T-47D): 1480 nM
- CC50 (T-47D): 5.34 µM
- GI50 (MOLT-4): 462 nM
- CC50 (MOLT-4): 3.98 µM
- TGI (MOLT-4): 1.57 × 10^−6
- GI50 (OVCAR-3): 1180 nM
- CC50 (OVCAR-3): 4.96 µM
- TGI (OVCAR-3): 2.42 × 10^−6
- GI50 (CCRF-CEM): 437 nM
- CC50 (CCRF-CEM): 3.89 µM
- TGI (CCRF-CEM): 1.48 × 10^−6
- GI50 (NCI-H522): 1330 nM
- CC50 (NCI-H522): 5.14 µM
- TGI (NCI-H522): 2.61 × 10^−6
- GI50 (HL-60(TB)): 282 nM
- CC50 (HL-60(TB)): 1480 nM
- TGI (HL-60(TB)): 5.69 × 10^−7
- GI50 (RPMI-8226): 1300 nM
- CC50 (RPMI-8226): 5.12 µM
- TGI (RPMI-8226): 2.57 × 10^−6
- TGI (MDA-MB-468): 8.99 × 10^−7
- GI50 (MDA-MB-468): 251 nM
- CC50 (MDA-MB-468): 3.02 µM

SMILES: COC1C[C@H]2C[C@]34CC3[C@H]2[C@]23C4C4=C(C(=O)c5ccccc5C4=O)N2C(=O)C(=O)N13 (stereo partly drawn)
- GI50 (OVCAR-3): 1490 nM
- CC50 (OVCAR-3): 19.6 µM
- TGI (OVCAR-3): 4.93 × 10^−6
- TGI (MDA-MB-468): 3.18 × 10^−6
- GI50 (MDA-MB-468): 1310 nM
- CC50 (MDA-MB-468): 7.73 µM

SMILES: C=CCN(C(=O)C(=O)NC1=CC(=O)c2ccccc2C1=O)c1c(OC)cccc1OC
- TGI (NCI-H23 [3]): 2.79 × 10^−6
- TGI (KM12 [1]): 2.28 × 10^−6
- TGI (SNB-75 [4]): 2.93 × 10^−6
- TGI (UACC-62 [5]): 2.81 × 10^−6
- TGI (OVCAR-8 [6]): 2.70 × 10^−6
- TGI (ACHN [7]): 2.66 × 10^−6
- TGI (UO-31 [8]): 2.76 × 10^−6
- GI50 (NCI-H23 [9]; NCI-H23): 1440 nM
- CC50 (NCI-H23 [9]; NCI-H23, read-out: LC50): 5.39 µM
- GI50 (KM12 [2]): 626 nM
- CC50 (KM12 [2]): 6.39 µM
- GI50 (SNB-75 [10]; SNB-75): 1430 nM
- CC50 (SNB-75 [10]; SNB-75, read-out: LC50): 5.99 µM
- GI50 (UACC-62 [11]; UACC-62): 1480 nM
- CC50 (UACC-62 [11]; UACC-62, read-out: LC50): 5.35 µM
- GI50 (OVCAR-8 [12]; OVCAR-8): 1360 nM
- CC50 (OVCAR-8 [12]; OVCAR-8, read-out: LC50): 5.36 µM
- GI50 (ACHN [13]): 1350 nM
- CC50 (ACHN [13]; read-out: LC50): 5.21 µM
- GI50 (UO-31 [14]; UO-31): 1440 nM
- CC50 (UO-31 [14]; UO-31, read-out: LC50): 5.31 µM
- TGI (MCF7): 2.78 × 10^−6
- GI50 (MCF7): 1450 nM
- CC50 (MCF7): 5.32 µM
- TGI (T-47D): 2.81 × 10^−6
- GI50 (T-47D): 1480 nM
- CC50 (T-47D): 5.33 µM
- GI50 (MOLT-4): 441 nM
- CC50 (MOLT-4): 4.04 µM
- TGI (MOLT-4): 1.62 × 10^−6
- GI50 (OVCAR-3): 1030 nM
- CC50 (OVCAR-3): 4.73 µM
- TGI (OVCAR-3): 2.21 × 10^−6
- GI50 (OVCAR-4): 1220 nM
- CC50 (OVCAR-4): 4.98 µM
- TGI (OVCAR-4): 2.46 × 10^−6
- GI50 (CCRF-CEM): 781 nM
- CC50 (CCRF-CEM): 4.55 µM
- TGI (CCRF-CEM): 2.04 × 10^−6
- GI50 (NCI-H522): 1250 nM
- CC50 (NCI-H522): 5.03 µM
- TGI (NCI-H522): 2.51 × 10^−6
- GI50 (HL-60(TB)): 249 nM
- CC50 (HL-60(TB)): 1520 nM
- TGI (HL-60(TB)): 5.42 × 10^−7
- GI50 (RPMI-8226): 1040 nM
- CC50 (RPMI-8226): 4.74 µM
- TGI (RPMI-8226): 2.22 × 10^−6
- TGI (MDA-MB-468): 8.97 × 10^−7
- GI50 (MDA-MB-468): 275 nM
- CC50 (MDA-MB-468): 3 µM

SMILES: COC1=C[C@H]2[C@H]3C[C@@H]1CN1C(=O)C(=O)N4C5=C(C(=O)c6ccccc6C5=O)[C@]3(OC)[C@]214
- GI50 (SR; Homo sapiens): 1400 nM
- CC50 (SR; Homo sapiens, read-out: LC50): 5.31 µM
- TGI (SR; Leukemia): 2.72 × 10^−6
- TGI (MCF7): 2.94 × 10^−6
- GI50 (MCF7): 921 nM
- CC50 (MCF7): 8.87 µM
- GI50 (RPMI-8226): 803 nM
- CC50 (RPMI-8226): 4.71 µM
- TGI (RPMI-8226): 2.05 × 10^−6

SMILES: C[C@]12C3=C(C(=O)c4ccccc4C3=O)N3C(=O)C(=O)N4C[C@H]5C[C@@]16CC6[C@@]5(C)[C@@]432 (stereo partly drawn)
- GI50 (SK-MEL-2; Homo sapiens): 1270 nM
- CC50 (SK-MEL-2; [15]): 5.2 µM
- TGI (SK-MEL-2): 2.57 × 10^−6
- GI50 (SK-MEL-5; Homo sapiens): 1300 nM
- CC50 (SK-MEL-5; [15]): 7.32 µM
- TGI (SK-MEL-5): 3.08 × 10^−6
- GI50 (OVCAR-4): 1360 nM
- CC50 (OVCAR-4): 5.17 µM
- TGI (OVCAR-4): 2.65 × 10^−6
- GI50 (CCRF-CEM): 1230 nM
- CC50 (CCRF-CEM): 5 µM
- TGI (CCRF-CEM): 2.48 × 10^−6
- GI50 (HL-60(TB)): 267 nM
- CC50 (HL-60(TB)): 3280 nM
- TGI (HL-60(TB)): 1.06 × 10^−6
- TGI (MDA-MB-468): 1.55 × 10^−6
- GI50 (MDA-MB-468): 384 nM
- CC50 (MDA-MB-468): 4.03 µM
